{"source": "ChEMBL document CHEMBL1201862", "about": "“PubChem BioAssay data set” (2004)", "key": {"cells [1]": {"assay": "cells", "assay_type": "functional"}, "[2]": {"assay": "HepG2 cell cytotoxicity, dose response, cytotoxicity control for non-replicating M. tuberculosis project (AID 489018)", "assay_type": "functional", "conditions": "Mycobacterium tuberculosis"}, "[3]": {"assay": "THP-1 cell cytotoxicity, dose response, cytotoxicity control for non-replicating M. tuberculosis project (AID 489025)", "assay_type": "functional"}, "[4]": {"assay": "Vero E6 cell cytotoxicity, dose response, cytotoxicity control for non-replicating M. tuberculosis project, secondary assay (AID 492998)", "assay_type": "functional, VeroE6", "conditions": "Vero C1008"}, "[5]": {"target": "T1, High affinity choline transporter 1 (Homo sapiens, UniProt Q9GZV3)", "T1 sequence (Q9GZV3 whole entry)": "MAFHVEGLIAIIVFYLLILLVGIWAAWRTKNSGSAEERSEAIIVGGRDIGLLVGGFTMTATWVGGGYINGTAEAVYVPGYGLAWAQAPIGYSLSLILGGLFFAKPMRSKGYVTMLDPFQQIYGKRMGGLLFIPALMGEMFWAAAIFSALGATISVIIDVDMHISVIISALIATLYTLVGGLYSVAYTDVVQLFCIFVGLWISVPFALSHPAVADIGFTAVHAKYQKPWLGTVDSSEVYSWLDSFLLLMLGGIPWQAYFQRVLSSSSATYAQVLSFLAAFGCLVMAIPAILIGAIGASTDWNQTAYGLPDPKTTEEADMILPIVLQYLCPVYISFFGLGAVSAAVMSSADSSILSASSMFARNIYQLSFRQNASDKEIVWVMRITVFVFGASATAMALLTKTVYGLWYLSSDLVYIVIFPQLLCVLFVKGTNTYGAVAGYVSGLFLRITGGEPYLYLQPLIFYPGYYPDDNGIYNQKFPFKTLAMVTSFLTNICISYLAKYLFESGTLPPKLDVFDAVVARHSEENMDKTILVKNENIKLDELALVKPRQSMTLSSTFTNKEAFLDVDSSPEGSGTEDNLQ", "assay": "human choline transporter blockers, potency – cell-based, 5-point CRC, membrane potential dye, dose response (AID 504840)", "assay_type": "functional"}, "[6]": {"assay": "growth inhibition of yeast DHODH-expressing 3D7 parasites – SYBR Green, dry powder samples, dose response (AID 1159570);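 note: parasite growth measured after 72 hours of compound exposure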", "assay_type": "functional, cell-based"}, "[7]": {"assay": "P. falciparum Dd2 growth inhibitors, dose response, SYBR Green, cherry-picked samples (AID 1159567)", "assay_type": "functional, cell-based"}, "[8]": {"assay": "growth inhibition of PfATP4-mutant resistant parasites – NITD609-resistant line, SYBR Green, dry powder, dose response (AID 1159571);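 note: parasites synchronized at ring stage by sorbitol before testing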", "assay_type": "functional, cell-based"}, "[9]": {"assay": "Dd2 malaria parasite growth inhibition potency – SYBR Green, dry powder samples, dose response (AID 1159566);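 note: potency for growth inhibition with lower SYBR green DNA signal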", "assay_type": "functional, cell-based"}, "[10]": {"assay": "luciferase reporter signal suppression in cells – H4 neuroglioma cells, luminescence, dose response (AID 1990)", "assay_type": "functional, cell-based"}, "[11]": {"assay": "HEK-293T cell viability reduction – luminescence, B-cell screen hits, cytotoxicity control for BCR NF-kB inhibitor project, dose response (AID 489021);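 note: cells exposed to compound for about 14 hours before viability readout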", "assay_type": "functional, cell-based"}, "[12]": {"assay": "alpha-synuclein stem-loop luciferase translation blockers – H4 neuroglioma cells, luminescence, confirmation (AID 1988)", "assay_type": "functional, cell-based"}, "INS1": {"test_system": "INS1", "assay": "INS-1E survival protection against cytokine death – cell-based, luminescence, retest, dose response (AID 449756);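 note: cell death triggered by IL-1 beta plus TNF-alpha plus IFN-gamma mixture; protective hits raise ATP signal compared with cytokine alone wells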", "assay_type": "functional", "conditions": "Rattus norvegicus"}, "[13]": {"assay": "Trypanosoma cruzi growth suppression in host cells – NIH3T3 host cells, beta-gal luminescence, confirmation (AID 2044);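 note: luminescent beta-galactosidase reporter signal from transgenic T. cruzi replicating inside host cells; inhibitors lower the luminescence signal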", "assay_type": "functional, cell-based"}, "[14]": {"target": "T2, Microphthalmia-associated transcription factor (Homo sapiens, UniProt O75030)", "T2 sequence (O75030 whole entry)": "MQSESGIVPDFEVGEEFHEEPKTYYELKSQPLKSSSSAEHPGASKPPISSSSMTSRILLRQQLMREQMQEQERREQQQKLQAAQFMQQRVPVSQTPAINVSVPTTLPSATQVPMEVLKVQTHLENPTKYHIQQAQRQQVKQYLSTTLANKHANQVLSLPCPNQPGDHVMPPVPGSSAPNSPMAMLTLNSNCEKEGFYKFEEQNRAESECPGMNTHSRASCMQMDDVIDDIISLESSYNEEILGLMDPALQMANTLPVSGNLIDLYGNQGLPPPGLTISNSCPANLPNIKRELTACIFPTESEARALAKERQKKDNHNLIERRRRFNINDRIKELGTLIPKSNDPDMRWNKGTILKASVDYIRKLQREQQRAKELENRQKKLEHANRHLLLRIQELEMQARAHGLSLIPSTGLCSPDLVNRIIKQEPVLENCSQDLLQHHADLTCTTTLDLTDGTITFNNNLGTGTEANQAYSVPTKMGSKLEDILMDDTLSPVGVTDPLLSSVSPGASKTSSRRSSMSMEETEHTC", "assay": "reducers of TRPM1 reporter luminescence, concentration series – cell-based, SK-MEL-5, cherry-picked, set 3, MITF inhibitor project, dose response (AID 493073);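 note: SK-MEL-5 melanoma cells with luciferase driven by the MITF target TRPM1 promoter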", "assay_type": "functional"}, "[15]": {"assay": "viability of HCT116 lacking mutant beta-catenin – cell-based, human colon tumor, dose response (AID 1045);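 note: HCT116 colon tumor cells with beta catenin knocked out; cells exposed to compound for 60 hours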", "assay_type": "functional"}, "[16]": {"assay": "NIH3T3 cell viability loss – ATP luminescence, mouse fibroblasts, counter-screen, dose response (AID 2010);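 note: cells exposed to compound for about 90 hours before reading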", "assay_type": "functional, cell-based"}, "[17]": {"assay": "viability of PTEN-deleted HCT116 cells – cell-based, HCT116 PTEN knockout, dose response (AID 1047);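 note: HCT116 colon tumor cells with PTEN knocked out; cells exposed to compound for 60 hours before readout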", "assay_type": "functional"}, "[18]": {"assay": "Luminescence Cell-Based Dose Confirmation HTS to Identify Inhibitors of Platelet Dense Granule Release. [Related pubchem assays: 1663 (Primary HTS), 1678 (Summary of Project)]", "assay_type": "functional"}, "[19]": {"target": "Luciferin 4-monooxygenase (Photinus pyralis, UniProt P08659)", "sequence (P08659 whole entry)": "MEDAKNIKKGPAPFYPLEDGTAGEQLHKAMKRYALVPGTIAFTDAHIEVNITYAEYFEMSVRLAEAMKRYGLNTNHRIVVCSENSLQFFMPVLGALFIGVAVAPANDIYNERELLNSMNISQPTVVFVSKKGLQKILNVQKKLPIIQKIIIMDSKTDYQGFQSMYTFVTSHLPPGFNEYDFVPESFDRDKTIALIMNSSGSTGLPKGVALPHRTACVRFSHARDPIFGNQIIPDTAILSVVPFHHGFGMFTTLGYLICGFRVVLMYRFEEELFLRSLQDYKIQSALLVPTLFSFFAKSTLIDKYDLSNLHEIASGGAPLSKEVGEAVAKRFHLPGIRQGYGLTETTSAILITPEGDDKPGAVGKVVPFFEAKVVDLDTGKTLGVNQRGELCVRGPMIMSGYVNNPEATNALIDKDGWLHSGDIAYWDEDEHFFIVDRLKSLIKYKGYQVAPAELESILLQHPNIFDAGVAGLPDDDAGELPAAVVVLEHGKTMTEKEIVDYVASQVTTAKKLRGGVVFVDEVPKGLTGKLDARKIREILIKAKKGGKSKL", "assay": "inhibition of purified Photinus pyralis luciferase – biochemical, luminescence, dose response (AID 1891)"}, "cells [20]": {"assay": "cells", "assay_type": "functional, cell-based"}, "cells [21]": {"assay": "cells", "assay_type": "functional, cell-based", "remark": "listed apart in the source"}}, "note": "Activity calls are given as the source filed them.", "data": [{"smiles": "COc1ccc(/C(C)=N/Nc2ncc(Cl)cc2Cl)c(O)c1", "values": [{"measurement": "IC50", "setting": "cells [1]", "result": "2.19 µM (active)"}, {"measurement": "CC50", "setting": "[2]", "result": "19.3 µM (active)"}, {"measurement": "CC50", "setting": "[3]", "result": "24.9 µM (active)"}, {"measurement": "CC50", "setting": "[4]", "result": "> 20 µM (active)"}]}, {"smiles": "COC(=O)/C(=C/c1c[nH]c2ccccc12)[N+](=O)[O-]", "values": [{"measurement": "IC50", "setting": "[5]", "result": "0.724 µM (active)"}]}, {"smiles": "Cc1ccc(S(=O)(=O)N(C)C[C@H]2OCc3ccccc3-c3c(n(C)c4ccccc34)C(=O)N([C@@H](C)CO)C[C@@H]2C)cc1", "values": [{"measurement": "AC50", "setting": "[6]", "result": "1.21 µM (active)"}, {"measurement": "AC50", "setting": "[7]", "result": "1.53 µM (active)"}, {"measurement": "AC50", "setting": "[8]", "result": "0.807 µM (active)"}, {"measurement": "AC50", "setting": "[9]", "result": "0.818 µM (active)"}]}, {"smiles": "Nc1cccn2c(-c3ccc(Cl)cc3)cnc12", "values": [{"measurement": "CC50", "setting": "[2]", "result": "19.1 µM (active)"}]}, {"smiles": "Cc1c(CCC(=O)N2CCC[C@H]2C(=O)O)c(=O)oc2cc3oc4c(c3cc12)CCCC4", "values": [{"measurement": "EC50", "setting": "[10]", "result": "8.13 µM (active)"}, {"measurement": "IC50", "setting": "[11]", "result": "> 80 µM (inactive)"}, {"measurement": "EC50", "setting": "[12]", "result": "10.2 µM (active)"}]}, {"smiles": "Cc1ccc(NC(S)=NNC(=O)C2CC2c2ccc(C)cc2)cc1", "note": "(stereo not given)", "values": [{"measurement": "IC50", "setting": "[5]", "result": "13.2 µM (active)"}]}, {"smiles": "CN(C)CCCn1c(=O)n(C2CCCCC2)c(=O)c2c3c(sc21)CCCCC3", "values": [{"measurement": "IC50", "setting": "cells [1]", "result": "24.9 µM (active)"}, {"measurement": "IC50", "setting": "[5]", "result": "8.71 µM (active)"}, {"measurement": "CC50", "setting": "[3]", "result": "23.8 µM (active)"}]}, {"smiles": "Cn1c(SCC(=O)N/N=C/c2ccc([N+](=O)[O-])s2)nnc1-c1ccccc1", "values": [{"measurement": "AC50", "setting": "INS1", "result": "3.5 µM (active)"}, {"measurement": "EC50", "setting": "[13]", "result": "0.634 µM (active)"}, {"measurement": "AC50", "setting": "[14]", "result": "4.28 µM (active)"}, {"measurement": "EC50", "setting": "[15]", "result": "4.99 µM (active)"}, {"measurement": "EC50", "setting": "[16]", "result": "19.8 µM (active)"}, {"measurement": "EC50", "setting": "[17]", "result": "4.9 µM (active)"}]}, {"smiles": "Cc1nn(-c2ccccc2)c(C)c1C(=O)OCC(=O)NC(=O)NC1CCCC1", "values": [{"measurement": "IC50", "setting": "[5]", "result": "14.5 µM (active)"}]}, {"smiles": "CCN1C(=O)Nc2cccc3cccc1c23", "values": [{"measurement": "IC50", "setting": "[11]", "result": "> 80 µM (inactive)"}, {"measurement": "EC50", "setting": "[18]", "result": "7.12 µM (active)"}, {"measurement": "EC50", "setting": "[19]", "result": "> 112 µM (not active)"}]}, {"smiles": "CCc1cc(CC)c(/C=N/NC(N)=O)c(CC)c1/C=N/NC(N)=O", "values": [{"measurement": "IC50", "setting": "[5]", "result": "11.1 µM (active)"}]}, {"smiles": "Cc1nnsc1C(=O)N/N=C/c1ccc2ccccc2c1O", "values": [{"measurement": "IC50", "setting": "cells [1]", "result": "> 50 µM (active)"}, {"measurement": "EC50", "setting": "cells [20]", "result": "35.8 µM (active)"}, {"measurement": "AC50", "setting": "INS1", "result": "0.321 µM (active)"}, {"measurement": "CC50", "setting": "[2]", "result": "1.51 µM (active)"}, {"measurement": "EC50", "setting": "cells [21]", "result": "6.43 µM (active)"}, {"measurement": "CC50", "setting": "[3]", "result": "< 0.078 µM (active)"}, {"measurement": "CC50", "setting": "[4]", "result": "0.09 µM (active)"}]}]}
